Source: PubChem BioAssay (NCI)
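Dose response: 5 concentrations. Exposure: 48 h. Format: 96-well plates. Endpoint: linear interpolation; highest concentration if not reached. TGI marks complete inhibition of growth.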

What was measured:
Assay in all cases: NCI-60 cell line screen, 48 h
HT29 colon = test system: HT29 colon
IGROV1 ovarian = test system: IGROV1 ovarian
M14 melanoma = test system: M14 melanoma
MDA-MB-435 = test system: MDA-MB-435
UO-31 renal = test system: UO-31 renal
K-562 leukemia = test system: K-562 leukemia
NCI/ADR-RES ovarian = test system: NCI/ADR-RES ovarian
HCT-116 colon = test system: HCT-116 colon
NCI-H23 lung = test system: NCI-H23 lung
DU-145 prostate = test system: DU-145 prostate
LOX IMVI melanoma = test system: LOX IMVI melanoma
UACC-62 melanoma = test system: UACC-62 melanoma
OVCAR-3 ovarian = test system: OVCAR-3 ovarian
SK-MEL-5 melanoma = test system: SK-MEL-5 melanoma
PC-3 prostate = test system: PC-3 prostate
SK-MEL-2 melanoma = test system: SK-MEL-2 melanoma
SR leukemia = test system: SR leukemia
SF-539 CNS = test system: SF-539 CNS
786-0 renal = test system: 786-0 renal
BT-549 breast = test system: BT-549 breast
UACC-257 melanoma = test system: UACC-257 melanoma
MCF7 breast = test system: MCF7 breast
SK-OV-3 ovarian = test system: SK-OV-3 ovarian
NCI-H460 lung = test system: NCI-H460 lung
HOP-62 NSCLC = test system: HOP-62 NSCLC
ACHN renal = test system: ACHN renal
A549 NSCLC = test system: A549 NSCLC
SF-268 CNS = test system: SF-268 CNS
MDA-N = test system: MDA-N
OVCAR-5 ovarian = test system: OVCAR-5 ovarian
U251 CNS = test system: U251 CNS
SK-MEL-28 melanoma = test system: SK-MEL-28 melanoma
MOLT-4 leukemia = test system: MOLT-4 leukemia
COLO 205 colon = test system: COLO 205 colon
CCRF-CEM leukemia = test system: CCRF-CEM leukemia
MALME-3M melanoma = test system: MALME-3M melanoma
SW-620 colon = test system: SW-620 colon
EKVX NSCLC = test system: EKVX NSCLC
KM12 colon = test system: KM12 colon
NCI-H522 lung = test system: NCI-H522 lung
HCT-15 colon = test system: HCT-15 colon
T-47D breast = test system: T-47D breast
OVCAR-8 ovarian = test system: OVCAR-8 ovarian
OVCAR-4 ovarian = test system: OVCAR-4 ovarian
A498 renal = test system: A498 renal
CAKI-1 renal = test system: CAKI-1 renal
HS 578T breast = test system: HS 578T breast
HCC-2998 colon = test system: HCC-2998 colon
SF-295 CNS = test system: SF-295 CNS
HL-60(TB) leukemia = test system: HL-60(TB) leukemia
RPMI-8226 leukemia = test system: RPMI-8226 leukemia
SNB-19 CNS = test system: SNB-19 CNS
MDA-MB-231 breast = test system: MDA-MB-231 breast
HOP-92 NSCLC = test system: HOP-92 NSCLC
SNB-75 CNS = test system: SNB-75 CNS
TK-10 renal = test system: TK-10 renal
SN12C renal = test system: SN12C renal
RXF 393 renal = test system: RXF 393 renal
NCI-H226 lung = test system: NCI-H226 lung

`O=C(Nc1ccc(Cl)cc1)Oc1ccc(C(=S)Nc2ccc(Br)cc2)cc1` showed a TGI (HT29 colon) of 18.1 µM, a TGI (IGROV1 ovarian) of 25 µM and a TGI (M14 melanoma) of 36 µM. It also gave a TGI (MDA-MB-435) of 38.6 µM, a TGI (UO-31 renal) of over 100 µM and a TGI (K-562 leukemia) of 57.2 µM. For the same compound, the TGI (NCI/ADR-RES ovarian) was 61.4 µM, the TGI (HCT-116 colon) was 54.4 µM and the TGI (NCI-H23 lung) was 63.9 µM. The TGI (DU-145 prostate) was over 100 µM, the TGI (LOX IMVI melanoma) was 9.32 µM and the TGI (UACC-62 melanoma) was 12.2 µM. For the same compound, the TGI (OVCAR-3 ovarian) was 54.5 µM, the TGI (SK-MEL-5 melanoma) was 23 µM and the TGI (PC-3 prostate) was over 100 µM. The TGI (SK-MEL-2 melanoma) was 27.7 µM, the TGI (SR leukemia) was 36.7 µM and the TGI (SF-539 CNS) was 39.7 µM. It also gave a TGI (786-0 renal) of 48.6 µM, a TGI (BT-549 breast) of 54.1 µM and a TGI (UACC-257 melanoma) of over 100 µM. The TGI (MCF7 breast) was 70.2 µM, the TGI (SK-OV-3 ovarian) was over 100 µM and the TGI (NCI-H460 lung) was over 100 µM. It also gave a TGI (HOP-62 NSCLC) of over 100 µM, a TGI (ACHN renal) of over 100 µM and a TGI (A549 NSCLC) of over 100 µM. It also gave a TGI (SF-268 CNS) of over 100 µM, a TGI (MDA-N) of 67.2 µM and a TGI (OVCAR-5 ovarian) of 38.4 µM. The TGI (U251 CNS) was 75.5 µM, the TGI (SK-MEL-28 melanoma) was 48.4 µM and the TGI (MOLT-4 leukemia) was 46.2 µM. It also gave a TGI (COLO 205 colon) of 23.6 µM, a TGI (CCRF-CEM leukemia) of 20.9 µM and a TGI (MALME-3M melanoma) of 89.2 µM. It also gave a TGI (SW-620 colon) of over 100 µM, a TGI (EKVX NSCLC) of 19.6 µM and a TGI (KM12 colon) of 25.5 µM. The TGI (NCI-H522 lung) was 37.2 µM, the TGI (HCT-15 colon) was 35.7 µM and the TGI (T-47D breast) was 88.9 µM. The TGI (OVCAR-8 ovarian) was 22.7 µM, the TGI (OVCAR-4 ovarian) was 75.8 µM and the TGI (A498 renal) was 54.9 µM. The TGI (CAKI-1 renal) was 35.8 µM, the TGI (HS 578T breast) was over 100 µM and the TGI (HCC-2998 colon) was 33.6 µM. For the same compound, the TGI (SF-295 CNS) was over 100 µM, the TGI (HL-60(TB) leukemia) was 18.1 µM and the TGI (RPMI-8226 leukemia) was over 100 µM. For the same compound, the TGI (SNB-19 CNS) was over 100 µM.
`O=C(/C=C/c1ccc(OCc2ccccc2)c(OCc2ccccc2)c1)OCc1ccccc1` gave a TGI (HT29 colon) of over 100 µM, a TGI (IGROV1 ovarian) of over 100 µM and a TGI (M14 melanoma) of over 100 µM. It also gave a TGI (MDA-MB-435) of over 100 µM, a TGI (UO-31 renal) of over 100 µM and a TGI (K-562 leukemia) of over 100 µM. It also gave a TGI (NCI/ADR-RES ovarian) of over 100 µM, a TGI (HCT-116 colon) of over 100 µM and a TGI (MDA-MB-231 breast) of over 100 µM. The TGI (NCI-H23 lung) was over 100 µM, the TGI (DU-145 prostate) was over 100 µM and the TGI (LOX IMVI melanoma) was over 100 µM. The TGI (UACC-62 melanoma) was over 100 µM, the TGI (OVCAR-3 ovarian) was over 100 µM and the TGI (SK-MEL-5 melanoma) was over 100 µM. It also gave a TGI (PC-3 prostate) of over 100 µM, a TGI (HOP-92 NSCLC) of over 100 µM and a TGI (SK-MEL-2 melanoma) of over 100 µM. For the same compound, the TGI (SR leukemia) was over 100 µM, the TGI (SF-539 CNS) was over 100 µM and the TGI (786-0 renal) was over 100 µM. The TGI (BT-549 breast) was over 100 µM, the TGI (SNB-75 CNS) was over 100 µM and the TGI (UACC-257 melanoma) was over 100 µM. It also gave a TGI (MCF7 breast) of over 100 µM, a TGI (SK-OV-3 ovarian) of over 100 µM and a TGI (NCI-H460 lung) of over 100 µM. The TGI (HOP-62 NSCLC) was over 100 µM, the TGI (ACHN renal) was over 100 µM and the TGI (A549 NSCLC) was over 100 µM. For the same compound, the TGI (SF-268 CNS) was over 100 µM, the TGI (MDA-N) was over 100 µM and the TGI (OVCAR-5 ovarian) was over 100 µM. The TGI (U251 CNS) was over 100 µM, the TGI (SK-MEL-28 melanoma) was over 100 µM and the TGI (MOLT-4 leukemia) was over 100 µM. The TGI (COLO 205 colon) was over 100 µM, the TGI (MALME-3M melanoma) was over 100 µM and the TGI (SW-620 colon) was over 100 µM. It also gave a TGI (EKVX NSCLC) of over 100 µM, a TGI (TK-10 renal) of over 100 µM and a TGI (KM12 colon) of over 100 µM. For the same compound, the TGI (NCI-H522 lung) was over 100 µM, the TGI (SN12C renal) was over 100 µM and the TGI (HCT-15 colon) was over 100 µM. For the same compound, the TGI (T-47D breast) was over 100 µM, the TGI (OVCAR-8 ovarian) was over 100 µM and the TGI (RXF 393 renal) was over 100 µM. The TGI (OVCAR-4 ovarian) was over 100 µM, the TGI (A498 renal) was over 100 µM and the TGI (NCI-H226 lung) was over 100 µM. It also gave a TGI (CAKI-1 renal) of over 100 µM, a TGI (HCC-2998 colon) of over 100 µM and a TGI (SF-295 CNS) of over 100 µM. It also gave a TGI (HL-60(TB) leukemia) of over 100 µM, a TGI (RPMI-8226 leukemia) of over 100 µM and a TGI (SNB-19 CNS) of over 100 µM.
`CC1=Nc2c(N)nc(N)nc2N(C)C1` showed a TGI (IGROV1 ovarian) of over 100 µM, a TGI (M14 melanoma) of over 100 µM and a TGI (MDA-MB-435) of over 100 µM. For the same compound, the TGI (UO-31 renal) was over 100 µM, the TGI (K-562 leukemia) was over 100 µM and the TGI (MDA-MB-231 breast) was over 100 µM. For the same compound, the TGI (NCI-H23 lung) was over 100 µM, the TGI (DU-145 prostate) was over 100 µM and the TGI (UACC-62 melanoma) was over 100 µM. For the same compound, the TGI (OVCAR-3 ovarian) was over 100 µM, the TGI (SK-MEL-5 melanoma) was over 100 µM and the TGI (PC-3 prostate) was over 100 µM. For the same compound, the TGI (SK-MEL-2 melanoma) was over 100 µM, the TGI (SF-539 CNS) was over 100 µM and the TGI (BT-549 breast) was over 100 µM. It also gave a TGI (SNB-75 CNS) of over 100 µM, a TGI (UACC-257 melanoma) of over 100 µM and a TGI (MCF7 breast) of over 100 µM. The TGI (SK-OV-3 ovarian) was over 100 µM, the TGI (NCI-H460 lung) was over 100 µM and the TGI (HOP-62 NSCLC) was over 100 µM. The TGI (ACHN renal) was over 100 µM, the TGI (SF-268 CNS) was over 100 µM and the TGI (MDA-N) was over 100 µM. For the same compound, the TGI (OVCAR-5 ovarian) was over 100 µM, the TGI (U251 CNS) was over 100 µM and the TGI (SK-MEL-28 melanoma) was over 100 µM. It also gave a TGI (MOLT-4 leukemia) of over 100 µM, a TGI (COLO 205 colon) of over 100 µM and a TGI (CCRF-CEM leukemia) of over 100 µM. For the same compound, the TGI (MALME-3M melanoma) was over 100 µM, the TGI (SW-620 colon) was over 100 µM and the TGI (EKVX NSCLC) was over 100 µM. The TGI (TK-10 renal) was over 100 µM, the TGI (KM12 colon) was over 100 µM and the TGI (SN12C renal) was over 100 µM. For the same compound, the TGI (HCT-15 colon) was over 100 µM, the TGI (T-47D breast) was over 100 µM and the TGI (OVCAR-8 ovarian) was over 100 µM. For the same compound, the TGI (RXF 393 renal) was over 100 µM, the TGI (NCI-H226 lung) was over 100 µM and the TGI (CAKI-1 renal) was over 100 µM. For the same compound, the TGI (HS 578T breast) was over 100 µM, the TGI (SF-295 CNS) was over 100 µM and the TGI (HL-60(TB) leukemia) was over 100 µM. For the same compound, the TGI (RPMI-8226 leukemia) was over 100 µM and the TGI (SNB-19 CNS) was over 100 µM.
